In experiment [1] the test system is ulcer induced by pylorus-ligation. Put plainly: Test of ulcer induced by pylorus-ligation. It counts as in vivo, wistar male rat. As to conditions: 14 h, read-out: Percentage of inhibition of ulcer formation. As to the method: (§1) With respect to anti-ulcer effect of the compounds having the general formula (I), there were carried out a test of ulcer induced by pylorus-ligation, which ulcer is induced mainly due to offensive factors; a test of ulcer induced by hydrochloric acid/ethanol, which ulcer is induced mainly due to defensive factors such as mucosal blood flow and mucus; and a test of ulcer induced by a stress of restraint plus water-immersion, which ulcer is induced due to both of offensive and defensive factors. Further, there were carried out a test of ulcer induced by acetic acid as a chronic ulcer model and a test of cure-prolonged ulcer induced by acetic acid. Also, there was examined an activity of increasing gastric mucosal blood flow, which activity brings about acceleration of regeneration of the gastric mucosa. As test compounds, hydrochloride salts were used.
The pylorus of a wistar male rat weighing 230 to 250 g, which had fasted for 48 hours, was ligated under ether-anesthesia, according to a usual method. After 14 hours, the animal was sacrificed by ether and the stomach was taken out therefrom.
The area of the ulcer generated on the fore-stomach was measured and the total area of the ulcer per rat was classified into the following six grades to give ulcer coefficients (Table 4).
Each of them was suspended in 0.5% methylcellulose solution and administered in the duodenum immediately after ligating the pylorus, in a dose of 100 mg/kg (body weight), respectively. To control group, only the medium for the medicament solution was administered in an amount of 0.25 ml/100 g (body weight).
The obtained results were subjected to the following formula to calculate a percentage of inhibition of ulcer formation. Six rats were used in each group for the test: [formula]

Experiment [2] deals with ulcer induced by hydrochloric acid/ethanol. Put plainly: Test of ulcer induced by hydrochloric acid/ethanol. It counts as in vivo, wistar male rat. The note with it: 1 h, read-out: Percentage of inhibition of ulcer formation; for inhibition in vivo at 30 mg/kg: 30 mg/kg oral, hydrochloride salts. As for the experimental part: as §1
To a wistar male rat weighing 220 to 240 g, which had fasted and thirsted for 24 hours, was orally administered 150 mM hydrochloric acid/70% ethanol solution in an amount of 5 ml/kg (body weight). After 1 hour, the animal was sacrificed by dislocating the cervical vertebrae and the stomach was taken out therefrom. The length of the ulcer generated on the glandular stomach was measured and the total thereof was regarded as the ulcer coefficient (mm).
To control group, only the medium for the medicament solution was orally administered in an amount of […] (body weight), 30 minutes before the administration of hydrochloric acid/ethanol.
(§2) The obtained results were subjected to the same formula as in the test of ulcer induced by pylorus-ligation, to calculate a percentage of inhibition of ulcer formation. Six rats were used in each group for the test.

Experiment [3] relates to ulcer induced by a stress of restraint plus water-immersion. As to the kind of experiment: Test of ulcer induced by a stress of restraint plus water-immersion. It is filed as in vivo, ddY male mouse. The note with it: 7 h, read-out: Percentage of inhibition of ulcer formation; for inhibition in vivo at 30 mg/kg: mouse, 30 mg/kg oral, 15 minutes before the load of the stress, hydrochloride salts. As for the experimental part:
as §1
A ddY male mouse weighing 20 to 25 g, which had fasted for 18 hours, was put into a stress cage, and was loaded with a stress by immersing it in a water tank at 23° C., to a level of a xiphoid. After 7 hours, the animal was sacrificed by dislocating the cervical vertebrae and the stomach was taken out therefrom. The length of the ulcer generated on the glandular stomach was measured and the total thereof was regarded as the ulcer coefficient (mm).
To control group, only the medium for the medicament solution was orally administered in an amount of 0.1 ml/10 g (body weight) 15 minutes before the load of the stress.
as §2

In experiment [4] the test system is ulcer induced by acetic acid. Put plainly: Test of ulcer induced by acetic acid. As to conditions: rat, 15 mg/kg oral, twice a day from 2 days after generation of the ulcer. It is filed as in vivo, wistar male rat. As for the experimental part:
as §1
Into the junction of the glandular stomach and the antrum, of a wistar male rat weighing 220 to 240 g, was injected subserosally […] of 20% acetic acid to generate an ulcer induced by acetic acid. […] Each of them was suspended in 0.5% methylcellulose solution, and administered orally in a dose of 15 mg/kg, twice a day (in the morning and in the evening) from 2 days after the generation of the ulcer for days, respectively. The animal was sacrificed by ether on the day after the last administration, and the stomach was taken out therefrom. The area of the ulcer was measured.
The obtained results were subjected to the following formula to calculate a percentage of improvement for curing ulcer. To control group, only the medium for the medicament solution was administered in an amount of 0.5 ml/100 g (body weight). Twenty rats were used in each group for the test. [formula]

The subject of experiment [5] is cure-prolonged ulcer induced by acetic acid. As to the kind of experiment: Test of cure-prolonged ulcer induced by acetic acid. It counts as in vivo, wistar male rat. The note with it: rat, 50 mg/kg oral, twice a day; cure prolonged with indomethacin 1 mg/kg s.c. for 13 days. As to the method: as §1
Into the junction of the glandular stomach and the antrum, of a wistar male rat weighing 220 to 240 g, was injected subserosally 30 μl of 20% acetic acid to generate an ulcer induced by acetic acid. From 2 days after the generation of the ulcer, indomethacin was injected subcutaneously in the regions of back of the rat in a dose of 1 mg/kg, once a day for 13 days to prolong the cure of the ulcer induced by acetic acid.
Each of them was suspended in 0.5% methylcellulose solution, and administered orally in a dose of 50 mg/kg, twice a day (in the morning and in the evening) from 13 days, respectively. The animal was sacrificed by ether on the day after the last administration, and the stomach was taken out therefrom. The area of the ulcer was measured. The obtained results were subjected to the following formula to calculate a percentage of improvement for curing ulcer. To control group, only the medium for the medicament solution was administered in an amount of 0.5 ml/100 g (body weight). Twenty rats were used in each group for the test. [formula]

[6] abbreviates: rat, 100 mg/kg, in the duodenum immediately after ligating the pylorus, hydrochloride salts.
Setting [7] is: rat, 30 minutes before hydrochloric acid/ethanol.

The results in this text go back to patent US5672597A, “Acetamide derivative” (Kaken Pharmaceutical Co., Ltd., priority 1992, dated 1997).

Like-named read-outs stand apart in the source and are kept apart here.

Take `COc1ccc(CN2CCCCC2)cc1OC/C=C\CNC(=O)CSCCNC(=O)c1ccoc1` [Example 4, N-[4-[(2-methoxy-5-piperidinomethyl)phenoxy]-cis-2-butenyl]-2-[2-(3-furoylamino)ethylthio]acetamide]: the inhibition in vivo at 100 mg/kg in experiment [1] (setting [6]) is 73%. In addition, the inhibition in vivo at 30 mg/kg stood at 97% in experiment [2] (setting [7]) and 75% in experiment [3].
On the same counts, the results for `O=C(CSCCNC(=O)c1ccco1)NCCCOc1cccc(CN2CCCCC2)c1` [Example 5, N-[3-[3-(piperidinomethyl)phenoxy]propyl]-2-[2-(2-furoylamino)ethylthio]acetamide] are 57%, 97% and 93%.
In the same order, the values of `O=C(CSCCNC(=O)c1ccccn1)NCCCOc1cccc(CN2CCCCC2)c1` [Example 6] are 67%, 61% and 88%.
On the same counts, the results for `O=C(CSCCNC(=O)c1ccccc1)NC/C=C\COc1cccc(CN2CCCCC2)c1` [Example 8, N-[4-[3-(piperidinomethyl)phenoxy]-cis-2-butenyl]-2-[2-(benzoylamino)ethylthio]acetamide] are 50%, 90% and 93%.
As for `O=C(CSCCNC(=O)c1ccoc1)NC/C=C\COc1cccc(CN2CCCCC2)c1` [Example 10, N-[4-[3-(piperidinomethyl)phenoxy]-cis-2-butenyl]-2-[2-(3-furoylamino)ethylthio]acetamide], the inhibition in vivo at 100 mg/kg in experiment [1] (setting [6]) was 73%. Also, the inhibition in vivo at 30 mg/kg in experiment [2] (setting [7]) is 89%; in experiment [3] it was 73%.
Consider `CCC(=NC#N)NCCSCC(=O)NC/C=C\COc1cccc(CN2CCCCC2)c1` [Example 11, N-[4-[3-(piperidinomethyl)phenoxy]-cis-2-butenyl]-2-[2-[(N-cyanopropioimidoyl)amino]ethylthio]-acetamide], for which the inhibition in vivo at 100 mg/kg in experiment [1] (setting [6]) turned out to be 55%. The inhibition in vivo at 30 mg/kg in experiment [2] (setting [7]) is 51%; in experiment [3] it was 70%.
In the case of `COC(=O)NCCSCC(=O)NCCCOc1cccc(CN2CCCCC2)c1` [Example 12, N-[3-[3-(piperidinomethyl)phenoxy]propyl]-2-[2-(methoxycarbonylamino)ethylthio]acetamide], the inhibition in vivo at 100 mg/kg in experiment [1] (setting [6]) is 77%. The inhibition in vivo at 30 mg/kg in experiment [2] (setting [7]) and in experiment [3] was 68% in each case.
`CCOC(=O)NCCSCC(=O)NCCCOc1cccc(CN2CCCCC2)c1` [Example 13, N-[3-[3-(piperidinomethyl)phenoxy]propyl]-2-[2-(ethoxycarbonylamino)ethylthio]acetamide]: the inhibition in vivo at 100 mg/kg in experiment [1] (setting [6]) was 68%. The inhibition in vivo at 30 mg/kg in experiment [2] (setting [7]) turned out to be 69%; in experiment [3], 89%.
For `CCOC(=O)NCCSCC(=O)NC/C=C\COc1cccc(CN2CCCCC2)c1` [Example 14, N-[4-[3-(piperidinomethyl)phenoxy]-cis-2-butenyl]-2-[2-(ethoxycarbonylamino)ethylthio]acetamide], in experiment [1] (setting [6]), the inhibition in vivo at 100 mg/kg stood at 63%. The inhibition in vivo at 30 mg/kg in experiment [2] (setting [7]) is 77%; in experiment [3], 91%.
As for `COC(=O)NCCSCC(=O)NC/C=C\COc1cccc(CN2CCCCC2)c1` [Example 15, N-[4-[3-(piperidinomethyl)phenoxy]-cis-2-butenyl]-2-[2-(methoxycarbonylamino)ethylthio]acetamide], in experiment [1] (setting [6]), the inhibition in vivo at 100 mg/kg turned out to be 68%. Further, the inhibition in vivo at 30 mg/kg stood at 60% in experiment [2] (setting [7]) and 98% in experiment [3].
Regarding `CNC(=S)NCCSCC(=O)NCCCOc1cccc(CN2CCCCC2)c1` [Example 16, N-[3-[3-(piperidinomethyl)phenoxy]propyl]-2-[2-(N'-methylthioureido)ethylthio]acetamide], in experiment [1] (setting [6]), the inhibition in vivo at 100 mg/kg came to 70%. The inhibition in vivo at 30 mg/kg in experiment [2] (setting [7]) was 62%; in experiment [3], 74%.
`O=C(CSCCNC(=O)c1ccccc1F)NCCCOc1cccc(CN2CCCCC2)c1` [Example 44]: the inhibition in vivo at 100 mg/kg in experiment [1] (setting [6]) stood at 57%. The inhibition in vivo at 30 mg/kg is 83% in experiment [2] (setting [7]) and 77% in experiment [3].
On the same counts, the results for `COC(=O)NCC[S+]([O-])CC(=O)NCCCOc1cccc(CN2CCCCC2)c1` (centres unmarked) [Example 48] are 95%, 73% and 100%.
As for `COc1ccccc1C(=O)NCCSCC(=O)NC/C=C\COc1cccc(CN2CCCCC2)c1` [Example 73], the inhibition in vivo at 100 mg/kg in experiment [1] (setting [6]) is 60%. Further, the inhibition in vivo at 30 mg/kg in experiment [2] (setting [7]) worked out at 67%; in experiment [3], 69%.
On to `COC(=O)NCC[S+]([O-])CC(=O)NC/C=C\COc1cccc(CN2CCCCC2)c1` (centres unmarked) [Example 79], for which the inhibition in vivo at 100 mg/kg in experiment [1] (setting [6]) was determined as 57%. The inhibition in vivo at 30 mg/kg in experiment [2] (setting [7]) is 78%; in experiment [3], 67%.
Turning to `C=CCOC(=O)NCC[S+]([O-])CC(=O)NC/C=C\COc1cccc(CN2CCCCC2)c1` (centres unmarked) [Example 81], in experiment [1] (setting [6]), the inhibition in vivo at 100 mg/kg amounted to 76%. Besides, the values for the inhibition in vivo at 30 mg/kg in experiment [2] (setting [7]) and in experiment [3] were 69% and 73%, respectively.
In the same order, the values of `COc1ccccc1C(=O)NCCSCC(=O)NC/C=C\COc1cc(CN2CCCCC2)ccn1` [Example 91] are 69%, 87% and 83%.
On to `CCCCNC(=S)NCCSCC(=O)NC/C=C\COc1cc(CN2CCCCC2)ccn1` [Example 95], for which the inhibition in vivo at 100 mg/kg in experiment [1] (setting [6]) is 73%. Moreover, the inhibition in vivo at 30 mg/kg in experiment [2] (setting [7]) stood at 72%; in experiment [3], 71%.
Take `CN/C(=N/CCSCc1nc[nH]c1C)NC#N` [cimetidine, reference compound]: the inhibition in vivo at 100 mg/kg was 27% in experiment [1] (Rattus norvegicus); 7% in experiment [2] (Rattus norvegicus, po); 61% in experiment [3] (Mus musculus, po).
Consider `NC(N)=Nc1nc(CSCCC(N)=NS(N)(=O)=O)cs1` [famotidine, reference compound], for which the inhibition in vivo at 100 mg/kg in experiment [1] (setting [6]) stood at 70%; in experiment [2] (rat, 100 mg/kg oral (cimetidine and famotidine), 30 minutes before hydrochloric acid/ethanol), 34%. Further, the inhibition in vivo at 30 mg/kg in experiment [3] is 100%. The “Percentage of improvement for curing ulcer” value in experiment [4] turned out to be 7%; in experiment [5], 26%.
